Assay results from the Kinase Knowledgebase extract (Sharma et al. 2016).

What follows are molecules tested against PIK3CB;PIK3CG;PIK3CD;PIK3CA (human) (UniProt P48736) (assay: Enzyme Assay).

SMILES | IC50 [nM]
O=C(c1nc(-c2ccccc2)n2c1CS(=O)(=O)c1ccccc1-2)N1CCOCC1 | 2740
COCCCC1c2c(C(=O)N3CCOCC3)nn(-c3ccccc3)c2-c2ccccc2S1(=O)=O (stereo not drawn) | 5070
O=C(c1nn(C2CCCN(c3ccccc3)C2)c2c1CS(=O)(=O)c1ccccc1-2)N1CCOCC1 (stereo not drawn) | 468
O=C(c1nn([C@H]2CCN(C3CCOCC3)C2)c2c1CS(=O)(=O)c1ccccc1-2)N1CCOCC1 | 1440
O=C(c1cccc(-n2nc(C(=O)N3CCOCC3)c3c2-c2ccccc2S(=O)(=O)C3)c1)N1CCS(=O)(=O)CC1 | 319
O=C(c1nn(-c2ccccc2)c2c1CS(=O)(=O)c1ccc(CN3CCOCC3)cc1-2)N1CCOCC1 | 1620
CS(=O)(=O)C1CCC(n2nc(C(=O)N3CCOCC3)c3c2-c2ccccc2S(=O)(=O)C3)CC1 (stereo not drawn) | 2100
Cn1cc(-c2cccc(-n3nc(C(=O)N4CCOCC4)c4c3-c3ccccc3S(=O)(=O)C4)c2)cn1 | 184
O=C(c1nn(C2CCC(F)(F)CC2)c2c1CS(=O)(=O)c1ccccc1-2)N1CCOCC1 | 386
Cc1nnc(-c2cccc(-n3nc(C(=O)N4CCOCC4)c4c3-c3ccccc3S(=O)(=O)C4)c2)s1 | 661
O=C(c1nn(C2CCN(CCN3CC[C@H](F)C3)C2)c2c1CS(=O)(=O)c1ccccc1-2)N1CCOCC1 (stereo partly drawn) | 192
CS(=O)(=O)NCc1ccc(-n2nc(C(=O)N3CCOCC3)c3c2-c2ccccc2S(=O)(=O)C3)cc1 | 421
Cc1cccc2c1S(=O)(=O)Cc1c(C(=O)N3CCOCC3)nn([C@H]3CCCN(CCN4CCOCC4)C3)c1-2 | 49
O=C(c1nn(C2CCCN(CCN3CC[C@H](F)C3)C2)c2c1CS(=O)(=O)c1ccccc1-2)N1CCOCC1 (stereo partly drawn) | 72
O=C(c1nn(C2CCCN(CCC3CCOCC3)C2)c2c1CS(=O)(=O)c1ncccc1-2)N1CCOCC1 (stereo not drawn) | 61
COc1cccc2c1S(=O)(=O)Cc1c(C(=O)N3CCOCC3)nn([C@H]3CCCN(CCN4CC(F)(F)C4)C3)c1-2 | 40
NCCCC1c2c(C(=O)N3CCOCC3)nn(-c3ccccc3)c2-c2ccccc2S1(=O)=O (stereo not drawn) | 4520
Cc1ccccc1-n1nc(C(=O)N2CCOCC2)c2c1-c1ccccc1S(=O)(=O)C2 | 2280
O=C(c1nn(-c2ccc(CN3CCC(F)CC3)cc2)c2c1CS(=O)(=O)c1ccccc1-2)N1CCOCC1 | 247
O=C(c1nn(-c2ccccc2)c2c1CS(=O)(=O)c1ccccc1-2)N1CCCOCC1 | 9070
COCCN1CCC[C@H](n2nc(C(=O)N3CCOCC3)c3c2-c2cccc(OC)c2S(=O)(=O)C3)C1 | 128
O=C(c1nn(-c2ccccc2)c2c1C(CC1CC1)S(=O)(=O)c1ccccc1-2)N1CCOCC1 (stereo not drawn) | 3900

SMILES | IC50 [nM]
COCCN1CCC(Cn2nc(C(=O)N3CCOCC3)c3c2-c2ccccc2S(=O)(=O)C3)CC1 | 681
NCc1ccc(-n2nc(C(=O)N3CCOCC3)c3c2-c2ccccc2S(=O)(=O)C3)cc1 | 349
O=C(c1nn(C2CCNC2)c2c1CS(=O)(=O)c1ccccc1-2)N1CCOCC1 (stereo not drawn) | 4640
CCC1c2c(C(=O)N3CCOCC3)nn(-c3ccccc3)c2-c2ccccc2S1(=O)=O (stereo not drawn) | 2470
O=C(c1nn(-c2ccc(C3(CN4CCOCC4)CC3)cc2)c2c1CS(=O)(=O)c1ccccc1-2)N1CCOCC1 | 995
O=C(c1nn(C2CCCN(CCF)C2)c2c1CS(=O)(=O)c1ccccc1-2)N1CCOCC1 (stereo not drawn) | 320
COCCn1nc(C(=O)N2CCOCC2)c2c1-c1ccccc1S(=O)(=O)C2 | 1290
COc1ccc2c(c1)S(=O)(=O)Cc1c(C(=O)N3CCOCC3)nn([C@@H]3CCCN(CCC4CCOCC4)C3)c1-2 | 10300
O=C(c1nn(C2CN(CCC3CCOCC3)C2)c2c1CS(=O)(=O)c1ccccc1-2)N1CCOCC1 | 95
CN1CCCC(N2CCC[C@H](n3nc(C(=O)N4CCOCC4)c4c3-c3ccccc3S(=O)(=O)C4)C2)C1 (stereo partly drawn) | 18
O=C(c1nn([C@H]2CCCN(C(=O)C3CCOCC3)C2)c2c1CS(=O)(=O)c1ccccc1-2)N1CCOCC1 | 1500
O=C(c1nn([C@@H]2CCCN(C3CCOCC3)CC2)c2c1CS(=O)(=O)c1ccccc1-2)N1CCOCC1 | 104
COc1ccc2c(c1)S(=O)(=O)Cc1c(C(=O)N3CCOCC3)nn([C@H]3CCCN(CC4CCOC4)C3)c1-2 (stereo partly drawn) | 44
O=C(c1nn(-c2cccc(CN3CCOCC3)c2)c2c1CS(=O)(=O)c1ccccc1-2)N1CCOCC1 | 1300
Nc1ncc(-c2cccc(-n3nc(C(=O)N4CCOCC4)c4c3-c3ccccc3S(=O)(=O)C4)c2)cn1 | 454
O=C(c1nn(C2CCC(O)CC2)c2c1CS(=O)(=O)c1ccccc1-2)N1CCOCC1 (stereo not drawn) | 512
Nc1ccc2c(c1)S(=O)(=O)Cc1c(C(=O)N3CCOCC3)nn(-c3ccccc3)c1-2 | 1130
COCCCN1CCCC(n2nc(C(=O)N3CCOCC3)c3c2-c2ccccc2S(=O)(=O)C3)C1 (stereo not drawn) | 140
O=C(c1nn(C2CCCCC2)c2c1CS(=O)(=O)c1cc(Br)ccc1-2)N1CCOCC1 | 691
O=C(c1nn(C2CCCN(CC3CCOC3)C2)c2c1CS(=O)(=O)c1ccccc1-2)N1CCOCC1 (stereo not drawn) | 98
COc1cccc2c1S(=O)(=O)Cc1c(C(=O)N3CCOCC3)nn(-c3ccccc3)c1-2 | 459
O=C(c1nn(-c2cccc(-c3ccccc3)c2)c2c1CS(=O)(=O)c1ccccc1-2)N1CCOCC1 | 764

SMILES | IC50 [nM]
CN1CCN(C(=O)c2ccc3c(c2)-c2c(c(C(=O)N4CCOCC4)nn2-c2ccccc2)CS3(=O)=O)CC1 | 4280
O=C(c1nn(C2CCCN(Cc3ccccc3)C2)c2c1CS(=O)(=O)c1ccccc1-2)N1CCOCC1 (stereo not drawn) | 540
COCCCN1CCC(n2nc(C(=O)N3CCOCC3)c3c2-c2ccccc2S(=O)(=O)C3)C1 (stereo not drawn) | 923
O=C(c1nn(-c2ccccc2)c2c1CS(=O)(=O)c1ccc([N+](=O)[O-])cc1-2)N1CCOCC1 | 1830
COCCN(C)CCN1CCC[C@H](n2nc(C(=O)N3CCOCC3)c3c2-c2ccccc2S(=O)(=O)C3)C1 | 45
O=C(c1nn(-c2ccc3c(c2)OCCO3)c2c1CS(=O)(=O)c1ccccc1-2)N1CCOCC1 | 670
Cn1nc(C(=O)N2CCOCC2)c2c1-c1ccccc1S(=O)(=O)C2 | 1750
O=C(CCN1CCC[C@H](n2nc(C(=O)N3CCOCC3)c3c2-c2ccccc2S(=O)(=O)C3)C1)N1CC(F)(F)C1 | 39
O=C(c1nn(C2CCCC(C(=O)N3CCOCC3)C2)c2c1CS(=O)(=O)c1ccccc1-2)N1CCOCC1 (stereo not drawn) | 420
CC(C)CCOC1CCN(Cc2ccc(-n3nc(C(=O)N4CCOCC4)c4c3-c3ccccc3S(=O)(=O)C4)cc2)C1 (stereo not drawn) | 167
O=C(c1nn(C2CCCN(CCC(F)(F)F)C2)c2c1CS(=O)(=O)c1ccccc1-2)N1CCOCC1 (stereo not drawn) | 149
CC(=O)OCCN1CCC(n2nc(C(=O)N3CCOCC3)c3c2-c2ccccc2S(=O)(=O)C3)C1 (stereo not drawn) | 871
O=C(c1nn(-c2cccc(-c3ccncc3)c2)c2c1CS(=O)(=O)c1ccccc1-2)N1CCOCC1 | 193
O=C(c1nn(-c2ccc(Br)cc2)c2c1CS(=O)(=O)c1ccccc1-2)N1CCOCC1 | 1120
COCCN(CCOC)CCN1CCC[C@H](n2nc(C(=O)N3CCOCC3)c3c2-c2ccccc2S(=O)(=O)C3)C1 | 113
COC1CCCN(C(=O)c2cccc(-n3nc(C(=O)N4CCOCC4)c4c3-c3ccccc3S(=O)(=O)C4)c2)C1 (stereo not drawn) | 246
O=C(c1nn(-c2ccc(CN3CCOCC3)cc2)c2c1CS(=O)(=O)c1cc(F)ccc1-2)N1CCOCC1 | 202
CC1CC(C)CC(n2nc(C(=O)N3CCOCC3)c3c2-c2ccccc2S(=O)(=O)C3)C1 (stereo not drawn) | 7960
COCCN1CCC(n2nc(C(=O)N3CCOCC3)c3c2-c2ccccc2S(=O)(=O)C3)CC1 | 1920
O=C(c1nn(-c2cccc(-c3ccoc3)c2)c2c1CS(=O)(=O)c1ccccc1-2)N1CCOCC1 | 826
O=C(c1nn(CC2CCCC2)c2c1CS(=O)(=O)c1ccccc1-2)N1CCOCC1 | 247
Cn1cc(-n2nc(C(=O)N3CCOCC3)c3c2-c2ccccc2S(=O)(=O)C3)ccc1=O | 2950

SMILES | IC50 [nM]
COCCN1CCC[C@H](n2nc(C(=O)N3CCOCC3)c3c2-c2cccc(C)c2S(=O)(=O)C3)C1 | 96
O=C(c1nn([C@H]2CCCN(C3CCOCC3)CC2)c2c1CS(=O)(=O)c1ccccc1-2)N1CCOCC1 | 340
O=C(c1nn(-c2ccc(CN3CCCCC3)nc2)c2c1CS(=O)(=O)c1ccccc1-2)N1CCOCC1 | 370
COCc1cccc(-n2nc(C(=O)N3CCOCC3)c3c2-c2ccccc2S(=O)(=O)C3)c1 | 997
O=C(c1nn([C@H]2CCN(CCC3CCOCC3)C2)c2c1CS(=O)(=O)c1c(F)cccc1-2)N1CCOCC1 | 92
O=C(c1nn(C2CCCCC2)c2c1CS(=O)(=O)c1ncccc1-2)N1CCOCC1 | 437
Cc1cccc2c1S(=O)(=O)Cc1c(C(=O)N3CCOCC3)nn(-c3ccccc3)c1-2 | 1740
Cn1nc(C(=O)N2CCOCC2)c2c1-c1cc([N+](=O)[O-])ccc1S(=O)(=O)C2 | 2770
O=C(c1nn(-c2ccc(CN3CC(F)(F)C3)cc2)c2c1CS(=O)(=O)c1ccccc1-2)N1CCOCC1 | 395
O=C(c1nn([C@H]2CCCNC2)c2c1CS(=O)(=O)c1ccccc1-2)N1CCOCC1 | 1060
O=C(CC1CCOCC1)N1CCC(n2nc(C(=O)N3CCOCC3)c3c2-c2ccccc2S(=O)(=O)C3)C1 (stereo not drawn) | 733
O=C(c1nn(C2CCOCC2)c2c1CS(=O)(=O)c1sccc1-2)N1CCOCC1 | 824
O=C(c1nn(-c2ccc(CN3CCOCC3)cc2)c2c1CS(=O)(=O)c1ncccc1-2)N1CCOCC1 | 400
O=C(c1nn(N2CCOCC2)c2c1C(F)S(=O)(=O)c1ccccc1-2)N1CCOCC1 (stereo not drawn) | 9800
CN1CCCC(n2nc(C(=O)N3CCOCC3)c3c2-c2ccccc2S(=O)(=O)C3)C1 (stereo not drawn) | 772
O=C(c1nn(-c2ccccn2)c2c1CS(=O)(=O)c1ccccc1-2)N1CCOCC1 | 1600
O=C(c1ccc(-n2nc(C(=O)N3CCOCC3)c3c2-c2ccccc2S(=O)(=O)C3)cc1)N1CCOCC1 | 274
CNc1cccc2c1S(=O)(=O)Cc1c(C(=O)N3CCOCC3)nn(-c3ccccc3)c1-2 | 3510
Cc1ccncc1-n1nc(C(=O)N2CCOCC2)c2c1-c1ccccc1S(=O)(=O)C2 | 4040
O=C(c1nn(-c2cccc(F)c2)c2c1CS(=O)(=O)c1ccccc1-2)N1CCOCC1 | 739
O=C(c1nn(-c2cccc(CN3CCCCC3)c2)c2c1CS(=O)(=O)c1ccccc1-2)N1CCOCC1 | 394
COCCNc1ccc2c(c1)-c1c(c(C(=O)N3CCOCC3)nn1-c1ccccc1)CS2(=O)=O | 902
